Counter-ions that a name gives are not always drawn.
Experiments:
α1A adrenoceptor = biological target: T1, α1A adrenoceptor (Rattus norvegicus, UniProt P43140); experiment: Radioligand binding, [3H] prazosin displacement, rat submaxillary membranes; details: for Ki: [3H] prazosin displacement, rat submaxillary membranes, read-out: Affinity for α1A (Rat Submaxillary), Ki; for α1B/α1A: ratio of binding affinities, rat liver vs rat submaxillary
T1 construct: from tissue; host or cells: rat submaxillary gland membranes
T1 sequence (P43140 1-466): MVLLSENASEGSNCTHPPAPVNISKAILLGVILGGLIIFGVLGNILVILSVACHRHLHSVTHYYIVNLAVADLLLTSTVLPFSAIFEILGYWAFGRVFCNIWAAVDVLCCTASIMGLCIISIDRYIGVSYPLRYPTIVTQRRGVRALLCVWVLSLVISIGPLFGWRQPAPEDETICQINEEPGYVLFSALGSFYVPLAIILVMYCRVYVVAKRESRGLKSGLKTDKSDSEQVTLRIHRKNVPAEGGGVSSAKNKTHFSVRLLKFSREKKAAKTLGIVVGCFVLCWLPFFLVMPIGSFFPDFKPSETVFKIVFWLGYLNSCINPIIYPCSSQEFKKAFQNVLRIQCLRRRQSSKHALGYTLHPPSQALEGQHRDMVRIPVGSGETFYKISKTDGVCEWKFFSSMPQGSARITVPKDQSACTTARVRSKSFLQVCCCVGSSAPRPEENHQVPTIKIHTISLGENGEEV
Protocol: (§1) Receptor binding assays were performed using native α-adrenoceptors. The affinity of different compounds for α1A and α1B adrenoceptor subtypes was evaluated by studying their ability to displace specific [^3H] prazosin binding from the membranes of rat submaxillary and liver respectively (Michel et al, Br J. Pharmacol.; 1989; 98:883). The binding assays were performed according to U'Prichard et al. (Eur J Pharmacol., 1978; 50:87) with minor modifications.
(§2) Submaxillary glands were isolated immediately after sacrifice. The liver was perfused with buffer (Tris HCl 50 mM, NaCl 100 mM, 10 mM EDTA pH 7.4). The tissues were homogenised in 10 volumes of buffer (Tris HCl 50 mM, NaCl 100 mM, 10 mM EDTA pH 7.4). The homogenate was filtered through two layers of wet gauge and filtrate was centrifuged at 500 g for 10 min. The supernatant was subsequently centrifuged at 40,000 g for 45 min. The pellet thus obtained was resuspended in the same volume of assay buffer (Tris HCl 50 mM, 5 mM EDTA pH 7.4) and were stored at −70° C. until the time of assay.
(§3) The membrane homogenates (150-250 μg protein) were incubated in 250 μl of assay buffer (Tris HCl 50 mM, EDTA 5 mM, pH 7.4) at 24-25° C. for 1 hour. Non specific binding was determined in the presence of 300 nM prazosin. The incubation was terminated by vacuum filtration over GF/B fibre filters. The filters were then washed with ice cold 50 mM Tris HCl buffer (pH 7.4). The filtermats were dried and bound radioacivity retained on filters was counted. The IC50 and Kd were estimated by using the non linear curve fitting program using G Pad Prism software. The value of inhibition constant Ki was calculated from competitive binding studies by using Cheng & Prusoff equation (Cheng & Prusoff, Biochem Pharmacol, 1973,22: 3099), Ki=IC50/(1+L/Kd) where L is the concentration of [^3H] prazosin used in the particular experiment (Table I).

α1B adrenoceptor = biological target: T2, α1B adrenoceptor (Rattus norvegicus, UniProt P15823); experiment: Radioligand binding, [3H] prazosin displacement, rat liver membranes; details: read-out: Affinity for α1B (Rat Liver), Ki
T2 construct: from tissue; host or cells: rat liver membranes
T2 sequence (P15823 1-515): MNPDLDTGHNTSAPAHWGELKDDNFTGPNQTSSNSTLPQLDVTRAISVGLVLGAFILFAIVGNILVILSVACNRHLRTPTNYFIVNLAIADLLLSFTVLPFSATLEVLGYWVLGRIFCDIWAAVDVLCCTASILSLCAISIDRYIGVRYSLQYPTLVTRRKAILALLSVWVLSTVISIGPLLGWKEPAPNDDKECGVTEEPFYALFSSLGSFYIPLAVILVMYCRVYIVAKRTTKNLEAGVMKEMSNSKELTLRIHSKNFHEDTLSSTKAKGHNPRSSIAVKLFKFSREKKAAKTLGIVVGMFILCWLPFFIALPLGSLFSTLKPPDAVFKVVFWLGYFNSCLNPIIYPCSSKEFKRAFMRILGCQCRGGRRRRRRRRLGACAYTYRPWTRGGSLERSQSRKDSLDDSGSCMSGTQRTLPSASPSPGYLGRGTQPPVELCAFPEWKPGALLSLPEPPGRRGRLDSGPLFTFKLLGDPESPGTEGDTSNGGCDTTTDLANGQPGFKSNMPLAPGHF
Protocol: as §1, §2, §3

prostate (α1A) = biological target: T3, prostate (α1A) (Rattus norvegicus, UniProt P43140); experiment: In vitro functional study, isolated rat prostate, antagonism of phenylepinephrine contraction; format: biochemical
T3 construct: from tissue; host or cells: isolated rat prostate (male Wistar)
T3 sequence (P43140 1-466): T1 sequence (P43140 1-466)
From the text: (§4) In order to study selectivity of action of these compounds towards different α-adrenoceptor subtypes, the ability of these compounds to antagonise aorta (α1D), prostate (α1A) and spleen (α1B) was studied. Aorta, prostrate and spleen tissues were isolated from urethane anaesthetized (1.5 g/kg) male wister rats. Isolated tissues were mounted in organ bath containing Krebs Henseleit buffer of the following composition (mM): NaCl 118; KCl 4.7; CaCl2 2.5; MgSO4 7H2O 1.2; NaHCO3 25; KH2PO4 1.2; glucose 11.5. Buffer was maintained at 37° C. and aereated with a mixture of 95% O2 and 5% CO2. A resting tension of 2 g (aorta) or 1 g (spleen and prostate) was applied to tissues. Contractile response was monitored using a force displacement transducer and recorded on chart recorders. Tissues were allowed to equilibrate for 2 hours. At the end of equilibration period, concentration response curves to norepinephrine (aorta) and phenylepinephrine (spleen and prostate) were obtained in the absence and presence of tested compound (at concentration of 0.1, 1 and 10 μM). Antagonist affinity was calculated and expressed as pKB values in Table II.

spleen (α1B) = biological target: T4, spleen (α1B) (Rattus norvegicus, UniProt P15823); experiment: In vitro functional study, isolated rat spleen, antagonism of phenylepinephrine contraction; format: biochemical; details: compound at 0.1, 1 and 10 μM
T4 construct: from tissue; host or cells: isolated rat spleen (male Wistar)
T4 sequence (P15823 1-515): T2 sequence (P15823 1-515)
From the text: as §4

aorta (α1D) = biological target: T5, aorta (α1D) (Rattus norvegicus, UniProt P23944); experiment: In vitro functional study, isolated rat aorta, antagonism of norepinephrine contraction; format: biochemical; details: compound at 0.1, 1 and 10 μM
T5 construct: Isolated tissues were mounted in organ bath containing Krebs Henseleit buffer; from tissue; host or cells: isolated rat aorta (male Wistar)
T5 sequence (P23944 1-561): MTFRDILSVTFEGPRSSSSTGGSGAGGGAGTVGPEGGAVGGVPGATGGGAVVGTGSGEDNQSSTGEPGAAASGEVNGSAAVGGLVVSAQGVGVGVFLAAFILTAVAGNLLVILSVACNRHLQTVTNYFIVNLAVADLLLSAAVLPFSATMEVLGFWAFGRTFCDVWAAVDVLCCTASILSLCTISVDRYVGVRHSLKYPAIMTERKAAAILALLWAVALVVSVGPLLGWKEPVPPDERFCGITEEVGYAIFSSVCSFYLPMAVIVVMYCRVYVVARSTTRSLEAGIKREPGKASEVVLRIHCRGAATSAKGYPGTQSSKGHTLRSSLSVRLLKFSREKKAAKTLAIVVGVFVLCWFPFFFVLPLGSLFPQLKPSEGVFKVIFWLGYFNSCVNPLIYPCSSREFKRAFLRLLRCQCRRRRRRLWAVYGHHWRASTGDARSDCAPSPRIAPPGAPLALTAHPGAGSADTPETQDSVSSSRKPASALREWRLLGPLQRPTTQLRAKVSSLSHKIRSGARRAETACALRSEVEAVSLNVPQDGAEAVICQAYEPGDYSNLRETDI
From the text: as §4

α1-adrenoceptor = details: background statement; cited from earlier work

Row | Compound | Ki (α1A adrenoceptor) [µM] | α1B/α1A (α1A adrenoceptor) | Ki (α1B adrenoceptor) [µM] | Selectivity α1D/α1A (prostate (α1A); functional assays, aorta vs prostate) | Selectivity α1B/α1A (prostate (α1A); functional assays, spleen vs prostate) | α1A (pKB) (prostate (α1A); rat prostate, phenylepinephrine, compound at 0.1, 1 and 10 μM) | α1B (pKB) (spleen (α1B)) | α1D (pKB) (aorta (α1D)) | α1-adrenergic blocking activity (pKi) (α1-adrenoceptor)
1 | CC(C)Oc1ccccc1N1CCN(CCCNC(=O)CCCC(=O)O)CC1 | 0.777 | 3 | 2.1 |  |  |  |  |  | 
2 | CC(C)Oc1ccccc1N1CCN(CCCNC(=O)C2CC=CCC2C(=O)O)CC1 (centres unmarked) [Compound No. 2, 1-Carboxy cyclohex-4-ene-2-[N-{3-(2-isopropoxyphenyl)piperazin-1-yl}propyl]carboxamide] | 0.019 | >53 | > 1 |  |  |  |  |  | 
3 | COc1ccccc1N1CCN(CC(O)CNC(=O)C2CC=CCC2C(=O)O)CC1 (centres unmarked) [Compound No. 3] | > 1 |  | > 1 |  |  |  |  |  | 
4 | O=C(O)C1CC=CCC1C(=O)NCC(O)CN1CCN(c2ccccc2O)CC1 (centres unmarked) [Compound No. 4] | 1.89 | 5 | 9.74 |  |  |  |  |  | 
5 | CC(C)Oc1ccccc1N1CCN(CC(O)CNC(=O)C2CC=CCC2C(=O)O)CC1 (centres unmarked) [Compound No. 5, 1-Carboxy cyclohex-4-ene-2-[N-{3-(2-isopropoxyphenyl)piperazin-1-yl}-2-hydroxypropyl]carboxamide] | 0.021 | 84 | 1.76 |  |  |  |  |  | 
6 | COc1ccccc1N1CCN(CC(O)CNC(=O)CCCC(=O)O)CC1 (centres unmarked) [Compound No. 12] | > 1 | 1 | > 10 |  |  |  |  |  | 
7 | COC(=O)CCCC(=O)NCCCN1CCN(c2ccccc2OC)CC1 [hydrochloride] | 0.139 | >7 | > 1 |  |  |  |  |  | 
8 | COc1cc2nc(N3CCN(C(=O)c4ccco4)CC3)nc(N)c2cc1OC [prazosin] |  |  |  |  |  |  |  |  | > 8

Continued, in another order:

Row | Ki (α1A adrenoceptor) [µM] | α1B/α1A (α1A adrenoceptor) | Ki (α1B adrenoceptor) [µM] | Selectivity α1D/α1A (prostate (α1A); functional assays, aorta vs prostate) | Selectivity α1B/α1A (prostate (α1A); functional assays, spleen vs prostate) | α1A (pKB) (prostate (α1A); rat prostate, phenylepinephrine, compound at 0.1, 1 and 10 μM) | α1B (pKB) (spleen (α1B)) | α1D (pKB) (aorta (α1D)) | Compound | α1-adrenergic blocking activity (pKi) (α1-adrenoceptor)
9 | 0.398 | 3 | 1.24 |  |  |  |  |  | 1-Carboxy cyclohex-4-ene-2-[N-{3-(2-ethoxyphenyl)piperazin-1yl}-2-hydroxyphenyl]carboxamide [Compound No. 6] | 
10 | 0.02 | >50 | > 1 | 9.5 | 1.15 | 8.22 | 8.16 | 7.24 | 1-Carboxycyclohex-4-ene-2-[N-{3-(2-ethoxyphenyl)piperazin-1-yl}propyl]carboxamide [Compound No. 1] | 
11 | 0.00315 | 31 | 0.099 |  |  |  |  |  | 1-Carboxymethylcyclohex-4-ene-2-[N-{3-(2-isopropoxyphenyl)piperazin-1-yl}-propyl]carboxamide hydrochloride [Compound No. 11] | 
12 | 12.6 | 1 | 13 |  |  |  |  |  | O=C(O)CCCC(=O)NCCCN1CCN(c2ccccc2O)CC1 [Compound No. 7, 5-[N-{3-(2-hydroxyphenyl)piperazin-1-yl}]-1-aminopropyl-5-oxo-pentan-1-oic acid] | 
13 | 0.593 | 9 | 5.08 |  |  |  |  |  | O=C(O)C1CC=CCC1C(=O)NCCCN1CCN(c2ccccc2O)CC1 (centres unmarked) [Compound No. 8, 1-Carboxy cyclohex-4-ene-2-[N-{3-(2-hydroxyphenyl)piperazin-1-yl}propyl]carboxamide] | 
